Assay results: patent US9023789B2, “Amylin analogs and pharmaceutical compositions thereof” (Novo Nordisk A/S, priority 2012, dated 2015)
Numbered stars: 1 amine (or outer) side, 2 acyl side, 3 side chain; on linkers, the order of the positions; unused ones are H or OH. Bridge positions count the residues as written; N and C are the ends. Side chains are listed from the residue outwards. Peptide text beside a SMILES is read from it. * marks the point of attachment. C20 diacid = O=C(O)CCCCCCCCCCCCCCCCCCC(=O)*; γGlu = O=C(O)[C@H](CCC(=O)[*:2])N[*:1]; AEEA = NCCOCCOCC(=O)O

Experiments:
[1] = molecular target: T1, rat amylin receptor (rat calcitonin receptor + rat RAMP 3) (Rattus norvegicus, UniProt P32214+Q9JJ73); test: ASSAY (VI) binding to the rat amylin receptor; details: for IC50: binding to rat amylin receptor, read-out: rAmylin-R bind IC50
T1 construct: expressed in transfected cells; host or cells: BHK tk'ts 13 (transient, FuGENE 6), membranes
T1 sequence (P32214 25-479 isoform P32214-2 limits assumed): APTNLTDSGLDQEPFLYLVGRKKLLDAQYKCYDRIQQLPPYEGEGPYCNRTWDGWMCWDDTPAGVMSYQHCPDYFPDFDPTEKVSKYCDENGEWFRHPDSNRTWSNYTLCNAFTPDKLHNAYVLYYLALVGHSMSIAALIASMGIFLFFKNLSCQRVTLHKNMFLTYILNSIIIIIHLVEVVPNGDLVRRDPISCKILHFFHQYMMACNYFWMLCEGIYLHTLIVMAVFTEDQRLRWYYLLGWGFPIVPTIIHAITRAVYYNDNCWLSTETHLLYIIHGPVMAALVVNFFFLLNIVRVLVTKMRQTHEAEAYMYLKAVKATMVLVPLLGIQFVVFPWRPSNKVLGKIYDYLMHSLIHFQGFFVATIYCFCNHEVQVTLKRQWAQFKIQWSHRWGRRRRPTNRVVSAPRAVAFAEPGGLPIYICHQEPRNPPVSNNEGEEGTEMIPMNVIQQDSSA
T1 sequence (Q9JJ73 23-147 partner): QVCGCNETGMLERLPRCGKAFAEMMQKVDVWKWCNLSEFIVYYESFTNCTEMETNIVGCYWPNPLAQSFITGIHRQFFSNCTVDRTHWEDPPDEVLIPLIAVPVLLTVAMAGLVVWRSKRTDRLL
Outline: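 Binding to the rat amylin receptor was determined with membrane preparations. The receptor was expressed by transiently transfecting BHK tk′ts 13 cells with rat calcitonin receptor, using FuGENE® 6 (Roche) according to the manufacturer's recommendations. Roughly 48 hours later the cells were harvested and their membranes isolated.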

[2] = ASSAY (III) ThT fibrillation assay for physical stability; type: physicochemical
Outline: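 Formulations with 1 μM ThT, pH adjusted as required, incubated at 37 °C with 960 rpm orbital shaking; fluorescence (ex 444/em 485 nm) read every 20 min. Fibrillation reported as mean ThT fluorescence ± SD of 4–8 replicates at time points; polypeptide concentration measured by reverse-phase HPLC before and after, post-centrifugation.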

[3] = Table 7, rat binding selectivity, rCTR IC50 / rAmylin-R IC50
[4] = Table 7a (preferred compounds), rat binding selectivity, rCTR IC50 / rAmylin-R IC50
[5] = ratio of rCTR bind IC50 to rAmylin-R bind IC50

Question: For `CC[C@H](C)[C@H](NC(=O)[C@H](C)NC(=O)CNC(=O)[C@H](Cc1ccccc1)NC(=O)[C@H](CC(N)=O)NC(=O)[C@@H]1CCCN1C(=O)[C@H](CO)NC(=O)[C@H](CO)NC(=O)[C@H](Cc1c[nH]cn1)NC(=O)[C@H](CCCNC(=N)N)NC(=O)[C@H](CC(C)C)NC(=O)[C@H](Cc1ccccc1)NC(=O)[C@H](Cc1c[nH]cn1)NC(=O)[C@H](C)NC(=O)[C@H](CC(C)C)NC(=O)[C@H](CCCNC(=N)N)NC(=O)[C@H](CCC(N)=O)NC(=O)[C@@H](NC(=O)[C@H](C)NC(=O)[C@@H]1CSSC[C@H](NC(=O)[C@@H](N)CCCCNC(=O)COCCOCCNC(=O)CC[C@H](NC(=O)CCCCCCCCCCCCCCCCCCC(=O)O)C(=O)O)C(=O)N[C@@H](CC(N)=O)C(=O)N[C@@H]([C@@H](C)O)C(=O)N[C@@H](C)C(=O)N[C@@H]([C@@H](C)O)C(=O)N1)[C@@H](C)O)C(=O)N1CCC[C@H]1C(=O)N[C@@H](CO)C(=O)N[C@@H](CO)C(=O)N[C@H](C(=O)N[C@@H](CC(N)=O)C(=O)N[C@H](C(=O)NCC(=O)N[C@@H](Cc1c[nH]cn1)C(=O)N[C@@H](CC(N)=O)C(=O)N[C@H](C(=O)N[C@@H](Cc1ccc(O)cc1)C(N)=O)[C@@H](C)O)C(C)C)[C@@H](C)O` [Example 80] (H-K([AEEA-γGlu-C20 diacid])CNTATCATQRLAHFLRHSSPNFGAIPSSTNVGHNTY-NH2; disulfide 2-7; N-terminus assumed), which IC50 ([1]; Table 7) is on record?
Answer: 1.67 nM

Question: And the “Ratio rCT/rAmylin binding” value [1, 3]?
Answer: 36.2

Question: And the “Ratio rCT/rAmylin binding” value [1, 4]?
Answer: 36.2

Question: What about the “Ratio rCT/rAmylin binding” value [1, 5] of the same compound?
Answer: 36.2

Question: And the “ThT pH 4.0 lag time (h)” value [2]?
Answer: 28 h

Question: Which results are given for `CC[C@H](C)[C@H](NC(=O)[C@H](C)NC(=O)CNC(=O)[C@H](Cc1ccccc1)NC(=O)[C@H](CC(N)=O)NC(=O)[C@@H]1CCCN1C(=O)[C@H](CO)NC(=O)[C@H](CO)NC(=O)[C@H](Cc1c[nH]cn1)NC(=O)[C@H](CCCNC(=N)N)NC(=O)[C@H](CC(C)C)NC(=O)[C@H](Cc1ccccc1)NC(=O)[C@H](CC(N)=O)NC(=O)[C@H](C)NC(=O)[C@H](CC(C)C)NC(=O)[C@H](CCCNC(=N)N)NC(=O)[C@H](CCC(N)=O)NC(=O)[C@@H](NC(=O)[C@H](C)NC(=O)[C@@H]1CSSC[C@H](NC(=O)[C@@H](N)CCCCNC(=O)CC[C@H](NC(=O)CC[C@H](NC(=O)CCCCCCCCCCCCCCCCCCC(=O)O)C(=O)O)C(=O)O)C(=O)N[C@@H](CC(N)=O)C(=O)N[C@@H]([C@@H](C)O)C(=O)N[C@@H](C)C(=O)N[C@@H]([C@@H](C)O)C(=O)N1)[C@@H](C)O)C(=O)N1CCC[C@H]1C(=O)N[C@@H](CO)C(=O)N[C@@H](CO)C(=O)N[C@H](C(=O)N[C@@H](CC(N)=O)C(=O)N[C@H](C(=O)NCC(=O)N[C@@H](Cc1c[nH]cn1)C(=O)N[C@@H](CC(N)=O)C(=O)N[C@H](C(=O)N[C@@H](Cc1ccc(O)cc1)C(N)=O)[C@@H](C)O)C(C)C)[C@@H](C)O` [Example 86] (H-K([γGlu-γGlu-C20 diacid])CNTATCATQRLANFLRHSSPNFGAIPSSTNVGHNTY-NH2; disulfide 2-7)?
Answer: IC50 ([1]; Table 7): 2.8 nM; Ratio rCT/rAmylin binding [1, 3]: 125.7; Ratio rCT/rAmylin binding [1, 4]: 125.7; Ratio rCT/rAmylin binding [1, 5]: 125.7; ThT pH 4.0 lag time (h) [2]: 32 h

Question: With `CC[C@H](C)[C@H](NC(=O)[C@H](C)NC(=O)CNC(=O)[C@H](Cc1ccccc1)NC(=O)[C@H](CC(N)=O)NC(=O)[C@@H]1CCCN1C(=O)[C@H](CO)NC(=O)[C@H](CO)NC(=O)[C@H](Cc1c[nH]cn1)NC(=O)[C@H](CCCNC(=N)N)NC(=O)[C@H](CC(C)C)NC(=O)[C@H](Cc1ccccc1)NC(=O)[C@H](CC(N)=O)NC(=O)[C@H](C)NC(=O)[C@H](CC(C)C)NC(=O)[C@H](CCCNC(=N)N)NC(=O)[C@H](CCC(N)=O)NC(=O)[C@@H](NC(=O)[C@H](C)NC(=O)[C@@H]1CSSC[C@H](NC(=O)[C@@H](N)CCCCNC(=O)CC[C@H](NC(=O)CCCCCCCCCCCCCCC(=O)O)C(=O)O)C(=O)N[C@@H](CC(N)=O)C(=O)N[C@@H]([C@@H](C)O)C(=O)N[C@@H](C)C(=O)N[C@@H]([C@@H](C)O)C(=O)N1)[C@@H](C)O)C(=O)N1CCC[C@H]1C(=O)N[C@@H](CO)C(=O)N[C@@H](CO)C(=O)N[C@H](C(=O)N[C@@H](CC(N)=O)C(=O)N[C@H](C(=O)NCC(=O)N[C@@H](Cc1c[nH]cn1)C(=O)N[C@@H](CC(N)=O)C(=O)N[C@H](C(=O)N[C@@H](Cc1ccc(O)cc1)C(N)=O)[C@@H](C)O)C(C)C)[C@@H](C)O` [Example 111] as the compound, how does the IC50 ([1]; Table 7) read?
Answer: 1.24 nM

Question: And the “Ratio rCT/rAmylin binding” value [1, 3]?
Answer: 326.8

Question: What about the “Ratio rCT/rAmylin binding” value [1, 4] of the same compound?
Answer: 326.8

Question: And the “Ratio rCT/rAmylin binding” value [1, 5]?
Answer: 326.8

Question: And the “ThT pH 4.0 lag time (h)” value [2]?
Answer: 10 h

Question: With `CC[C@H](C)[C@H](NC(=O)[C@H](C)NC(=O)CNC(=O)[C@H](Cc1ccccc1)NC(=O)[C@H](CC(N)=O)NC(=O)[C@@H]1CCCN1C(=O)[C@H](CO)NC(=O)[C@H](CO)NC(=O)[C@H](Cc1c[nH]cn1)NC(=O)[C@H](CCCNC(=N)N)NC(=O)[C@H](CC(C)C)NC(=O)[C@H](Cc1ccccc1)NC(=O)[C@H](CC(N)=O)NC(=O)[C@H](C)NC(=O)[C@H](CC(C)C)NC(=O)[C@H](CCCNC(=N)N)NC(=O)[C@H](CCC(N)=O)NC(=O)[C@@H](NC(=O)[C@H](C)NC(=O)[C@@H]1CSSC[C@H](NC(=O)[C@H](CCCCN)NC(=O)CC[C@H](NC(=O)CCCCCCCCCCCCCCCCCCC(=O)O)C(=O)O)C(=O)N[C@@H](CC(N)=O)C(=O)N[C@@H]([C@@H](C)O)C(=O)N[C@@H](C)C(=O)N[C@@H]([C@@H](C)O)C(=O)N1)[C@@H](C)O)C(=O)N1CCC[C@H]1C(=O)N[C@@H](CO)C(=O)N[C@@H](CO)C(=O)N[C@H](C(=O)N[C@@H](CC(N)=O)C(=O)N[C@H](C(=O)NCC(=O)N[C@@H](CO)C(=O)N[C@@H](CCCCN)C(=O)N[C@H](C(=O)N[C@@H](Cc1ccc(O)cc1)C(N)=O)[C@@H](C)O)C(C)C)[C@@H](C)O` [Example 34] as the compound, how does the IC50 ([1]; Table 7) read?
Answer: 1.72 nM

Question: What about the “Ratio rCT/rAmylin binding” value [1, 3] of the same compound?
Answer: 52.0

Question: And the “Ratio rCT/rAmylin binding” value [1, 4]?
Answer: 52.0

Question: And the “Ratio rCT/rAmylin binding” value [1, 5]?
Answer: 52.0

Question: And the “ThT pH 4.0 lag time (h)” value [2]?
Answer: 35 h

Question: Which results are given for `CC[C@H](C)[C@H](NC(=O)[C@H](C)NC(=O)CNC(=O)[C@H](Cc1ccccc1)NC(=O)[C@H](CC(N)=O)NC(=O)[C@@H]1CCCN1C(=O)[C@H](CO)NC(=O)[C@H](CO)NC(=O)[C@H](Cc1c[nH]cn1)NC(=O)[C@H](CCCNC(=N)N)NC(=O)[C@H](CC(C)C)NC(=O)[C@H](Cc1ccccc1)NC(=O)[C@H](CCCNC(=N)N)NC(=O)[C@H](C)NC(=O)[C@H](CC(C)C)NC(=O)[C@H](CCCNC(=N)N)NC(=O)[C@H](CCC(N)=O)NC(=O)[C@@H](NC(=O)[C@H](C)NC(=O)[C@@H]1CSSC[C@H](NC(=O)[C@@H](N)CCCCNC(=O)CC[C@H](NC(=O)CCCCCCCCCCCCCCCCCCC(=O)O)C(=O)O)C(=O)N[C@@H](CC(N)=O)C(=O)N[C@@H]([C@@H](C)O)C(=O)N[C@@H](C)C(=O)N[C@@H]([C@@H](C)O)C(=O)N1)[C@@H](C)O)C(=O)N1CCC[C@H]1C(=O)N[C@@H](CO)C(=O)N[C@@H](CO)C(=O)N[C@H](C(=O)N[C@@H](CC(N)=O)C(=O)N[C@H](C(=O)NCC(=O)N1CCC[C@H]1C(=O)N[C@@H](CC(N)=O)C(=O)N[C@H](C(=O)N[C@@H](Cc1ccc(O)cc1)C(N)=O)[C@@H](C)O)C(C)C)[C@@H](C)O` [Example 65] (H-K([γGlu-C20 diacid])CNTATCATQRLARFLRHSSPNFGAIPSSTNVGPNTY-NH2; disulfide 2-7 (inferred); N-terminus assumed)?
Answer: IC50 ([1]; Table 7): 1.16 nM; Ratio rCT/rAmylin binding [1, 3]: 93.2; Ratio rCT/rAmylin binding [1, 4]: 93.2; Ratio rCT/rAmylin binding [1, 5]: 93.2; ThT pH 4.0 lag time (h) [2]: 45 h
